Measured values published in patent publication US20230227406A1, “MODULATORS OF E3 LIGASES” (Rekindle Therapeutics Inc., priority 2020, published 2023).

Experiments:
[1] = tested on: phosphorylated AKT and phosphorylated Ribosomal Protein S6; assay: Western blot of AKT and S6 phosphorylation in BT-20 cells; type: cell-based, human; settings: indicated doses
Text: (§1) The data presented here are consistent with the previous replicate in Hs578T cells, and the observation is preserved in another TNBC cell line, BT-20. COMPOUND 1 reduces the phospho-AKT/vinculin loading control and phospho-S6/total S6 ratios. Methods are the same as the previous replicate, using the indicated doses.
The data presented here are consistent with the previous replicate in Hs578T cells. COMPOUND 6 reduces the phospho-AKT/vinculin loading control and phospho-S6/total S6 ratios in BT-20 cells. Methods are the same as the previous replicate, using the indicated doses.

PD-L1 [2] = assay: Western blot of PD-L1 in Hs578T cells; type: cell-based, human; settings: 48 hours, indicated concentrations of compound
Method: Hs578T cells (human triple negative breast cancer) were treated with the indicated concentration of COMPOUND 1 for 48 hours prior to harvesting. The “0” concentration is DMSO only (0.5%, same as was used for compound doses). […] Analysis occurred via western blot using the indicated antibodies. Quantification by densitometry of the bands from the western blot are presented for PD-L1/Vinculin (loading control) in the absence of interferon gamma, and glycosylated/non-glycosylated PD-L1 in the presence of interferon gamma.
as §1, with “increases PD-L1 levels and” for “reduces”, “glycosylated PD-L1/non-glycosylated PD-L1 ratio.” for “phospho-AKT/vinculin loading control and phospho-S6/total S6 ratios.”
Hs578T cells (human triple negative breast cancer) were treated with the indicated concentration of COMPOUND 6 for 48 hours before harvesting. The “0” concentration is DMSO only (0.5%, same as was used for compound doses). […] Analysis occurred via western blot using the indicated antibodies. PD-L1 protein levels were reduced relative to the vinculin loading control upon compound treatment. This effect is observed in the presence and absence of interferon gamma (IFN, 25 ng/mL in cell culture media during the drug treatment).
Hs578T cells (human triple negative breast cancer) were treated with the indicated concentration of COMPOUND 7 for 48 hours prior to harvesting. The “0” concentration is DMSO only (0.5%, same as was used for compound doses). […] Analysis occurred via western blot using the indicated antibodies. PD-L1 protein levels were reduced relative to the vinculin loading control upon 319-02 treatment.
The data presented here are consistent with the previous replicate in Hs578T cells. COMPOUND 7 reduces the PD-L1/vinculin loading control ratio. Methods are the same as the previous replicate, using the indicated doses.
Hs578T cells (human triple negative breast cancer) were treated with the indicated concentration of COMPOUND 8 for 48 hours and then harvested. The “0” concentration is DMSO only (0.5%, same as was used for compound doses). […] Analysis occurred via western blot using the indicated antibodies.
PD-L1-APC (BD Biosciences) and a matched isotype control were used to visualize PD-L1 cell surface expression by flow cytometry (1:250 dilution). As shown by western blot, the knockdown of WWP1 yielded increased PD-L1 protein levels, including an increase in the glycosylated band.
Total RNA was isolated using an RNeasy kit from Qiagen.

PD-L1 [3] = assay: Western blot of PD-L1 in BT-20 cells; type: cell-based, human; settings: indicated doses
Text: as §1, with “increases PD-L1 levels and” for “reduces”, “glycosylated PD-L1/non-glycosylated PD-L1 ratio.” for “phospho-AKT/vinculin loading control and phospho-S6/total S6 ratios.”
The data presented here are consistent with the previous replicate in Hs578T cells. COMPOUND 6 reduces the PD-L1/vinculin loading control ratio in BT-20 cells. […] Methods are the same as the previous replicate, using the indicated doses.

WWP1 = target: T1, WWP1 (Homo sapiens, UniProt Q9H0M0); assay: In vitro WWP1-dependent ubiquitination of PTEN, western blot and LC-MS/MS; type: biochemical; settings: 2 hours, indicated doses of inhibitor
T1 construct: purchased Ubiquigent 63-0034-025/30033/D
T1 sequence (Q9H0M0 whole entry): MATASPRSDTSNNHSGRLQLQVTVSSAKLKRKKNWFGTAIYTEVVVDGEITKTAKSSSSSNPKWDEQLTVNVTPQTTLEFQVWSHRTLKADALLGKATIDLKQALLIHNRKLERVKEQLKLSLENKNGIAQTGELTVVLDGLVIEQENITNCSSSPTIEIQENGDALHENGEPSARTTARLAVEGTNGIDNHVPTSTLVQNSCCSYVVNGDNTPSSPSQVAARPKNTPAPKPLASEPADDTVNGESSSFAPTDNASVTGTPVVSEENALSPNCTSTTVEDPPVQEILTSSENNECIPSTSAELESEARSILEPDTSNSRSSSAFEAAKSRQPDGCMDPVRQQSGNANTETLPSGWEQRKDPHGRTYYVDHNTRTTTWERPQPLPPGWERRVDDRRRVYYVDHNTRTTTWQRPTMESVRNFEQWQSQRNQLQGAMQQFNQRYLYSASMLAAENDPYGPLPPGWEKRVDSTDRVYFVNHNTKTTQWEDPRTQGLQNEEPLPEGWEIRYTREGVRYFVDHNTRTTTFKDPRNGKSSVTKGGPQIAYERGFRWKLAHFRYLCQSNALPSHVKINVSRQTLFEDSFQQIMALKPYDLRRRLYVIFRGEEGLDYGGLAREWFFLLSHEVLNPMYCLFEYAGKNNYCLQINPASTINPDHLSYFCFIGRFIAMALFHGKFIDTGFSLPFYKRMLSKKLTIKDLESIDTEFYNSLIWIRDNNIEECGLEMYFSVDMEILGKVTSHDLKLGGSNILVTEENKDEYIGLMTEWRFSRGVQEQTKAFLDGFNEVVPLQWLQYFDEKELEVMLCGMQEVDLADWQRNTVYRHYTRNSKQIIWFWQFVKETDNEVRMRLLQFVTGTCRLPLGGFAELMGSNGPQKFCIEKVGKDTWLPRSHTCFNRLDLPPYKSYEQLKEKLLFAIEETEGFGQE
Method: In vitro ubiquitination reactions were carried out for 2 hours using the indicated doses of inhibitor. Increasing doses of inhibitor block PTEN substrate ubiquitination, which correlates with remaining free ubiquitin. The “0” concentration is DMSO only (0.5%, same as was used for compound doses). No E1 and No E3 negative controls are present (only free ubiquitin present). Analysis occurred by western blot using an anti-ubiquitin antibody. A fraction of these samples was digested with Trypsin/LysC and labeled with TMT quantification reagents prior to LC-MS/MS analysis.
In vitro ubiquitination reactions were carried out for 2 hours using the indicated doses of inhibitor. Increasing doses of inhibitor block PTEN substrate ubiquitination, which correlates with remaining free ubiquitin. The “0” concentration is DMSO only (0.5%, same as was used for compound doses). No E1 and No E3 negative controls are present (only free ubiquitin present). Analysis occurred by western blot using an anti-ubiquitin antibody.

Compound	phospho-AKT/vinculin loading control ratio [1]	phospho-S6/total S6 ratio [1]	PD-L1 glycosylation (glycosylated/non-glycosylated PD-L1 ratio) (PD-L1 [2])	PD-L1 levels (relative to vinculin loading control) (PD-L1 [2])	PD-L1 glycosylation (glycosylated/non-glycosylated PD-L1 ratio) (PD-L1 [3])	PD-L1 levels (PD-L1/vinculin loading control ratio) (PD-L1 [3])	WWP1 dependent ubiquitination of PTEN (western blot, anti-ubiquitin) (WWP1)
C#Cc1ccc2c(C=O)cn(-c3ccccc3)c2c1 [Compound 1, 6-ethynyl-1-phenyl-1H-indole-3-carbaldehyde]	reduces	reduces	increases	increases	increases	increases	
C#CCNC(=O)c1ccc2c(Cc3c[nH]c4ccccc34)c[nH]c2c1 [Compound 6, 3-((1H-indol-3-yl)methyl)-N-(prop-2-yn-1-yl)-1H-indole-6-carboxamide]	reduces	reduces		reduced	probably reduces	reduces	
C#CCN(CCO)C(=O)c1ccc2c(Cc3c[nH]c4ccccc34)c[nH]c2c1 [Compound 7, 3-((1H-indol-3-yl)methyl)-N-(2-hydroxyethyl)-N-(prop-2-yn-1-yl)-1H-indole-6-carboxamide]				reduces			Inhibits WWP1-Dependent Ubiquitination of PTEN, in a Dose-Dependent Manner
